Patent US20240254109A1, “SALT CONTAINING PIPERAZINE POLYCYCLIC DERIVATIVE, CRYSTAL FORM THEREOF, PREPARATION METHOD THEREFOR, AND USE THEREOF” (Shanghai Hansoh Biomedical Co., Ltd., priority 2021, published 2024)
Counter-ions that a name gives are not always drawn.

What was measured:
[1] = Solid stability experiment of crystal form of salt; assay type: physicochemical
Procedure: 4. Solid Stability Experiment
The physicochemical stability of crystal form of salt of compound N-(trans-3-(2-(4-(2,3-dichlorophenyl)piperazin-1-yl)ethyl)cyclobutyl)oxazole-2-carboxamide under the conditions of light 50001×, high temperature 60° C., high humidity 92.5% RH and high temperature and high humidity 50° C. 75% RH was investigated, which provided a basis for crystal form screening and compound crystal form storage.
About 1 mg of different crystal forms of salt were taken and placed under the conditions of light 50001×, high temperature 60° C., high humidity 92.5% RH, high temperature and high humidity 50° C. 75% RH for 5 days and 10 days. The salt content was determined by HPLC and external standard method, and the change of relevant substances was calculated by chromatographic peak area normalization method.

[2] = Pressure crystal transformation test; assay type: physicochemical; settings: before and after pressure, tablet press at maximum pressure
From the text: 4.5 Pressure Crystal Transformation Test
The tablet press was adjusted to the maximum pressure. It was pressed into a tablet and then was subjected to PXRD characterization.

[3] = Grinding crystal transformation test; assay type: physicochemical; settings: before and after grinding in a mortar for 5 min
From the text: 4.6 Grinding Crystal Transformation Test

[4] = Hygroscopicity experiment of crystal form A of hydrochloride; assay type: physicochemical
From the text: 5 Hygroscopicity Experiment

[5] = Thermodynamic stability experiment of crystal form (pulping in solvents); assay type: physicochemical; settings: for Results (crystal form after pulping, XRPD): pulped 1 week at room temperature and 50° C.
Procedure: 6. Thermodynamic Stability Experiment of Crystal Form
An organic solvent with a certain solubility was selected. […] The supernatant was discarded, and the solid was dried in vacuum (−0.1 Mpa) overnight at 50° C. The XRPD of the solid was determined and compared with XRPD of raw compound salt.

[6] = Salt form quantification by HPLC-ELSD; assay type: physicochemical
Procedure: 7. Salt Form Quantification
The number of acids binding in the salt form was quantified by HPLC-ELSD test.
An appropriate amount of NaCl was weighed, and a series of linear solutions of different concentrations with the diluent acetonitrile-water (50:50) was prepared.
The above linear solution and hydrochloride samples solution was taken to filter.
7.3 Experimental results: The content of hydrochloric acid in hydrochloride was calculated according to the external standard method, and the quantitative results of hydrochloride are shown in Table 30.

[7] = Pharmacokinetics study in rats; assay type: in vivo
From the text: 8. Pharmacokinetics Study in Rats

[8] = Crystal form stability study of hydrochloride for 30 days; assay type: physicochemical; settings: 30 days
Procedure: 9. Crystal Form Stability Study of Hydrochloride for 30 Days
The 30 days stability of hydrochloride of N-(trans-3-(2-(4-(2,3-dichlorophenyl)piperazin-1-yl)ethyl)cyclobutyl)oxazole-2-carboxamide under four conditions of 60° C. (closed), 40° C. & RH 75% (open), 25° C./RH 92.5% (open) and light (5000±500 Lux) was detected, which provided scientific basis for the production, packaging, storage and transportation conditions of drugs.
The diluent 80% methanol solution was added to prepare a solution containing about 0.5 mg/mL hydrochloride. The mixture was sonicated for 30 min to produce a clear solution. 1 mL of the solution was filtered and measured by HPLC. See “2.3.4” for the HPLC analysis method. The content of related substances was calculated according to the peak area normalization method, and the results are shown in Table 32 below.

[9] = High humidity, 5 Days, listed as Crystal form A of hydrochloride
[10] = High temperature and high humidity, 5 Days
[11] = High temperature and high humidity, 10 Days
[12] = Light, 5 Days, listed as Crystal form A of hydrochloride
[13] = Light, 10 Days, listed as Crystal form A of hydrochloride
[14] = light, 60° C., 92.5% RH, 50° C. 75% RH, 5 and 10 days
[15] = light, 60° C., 92.5% RH, 40° C. & 75% RH

For `O=C(N[C@H]1C[C@H](CCN2CCN(c3cccc(Cl)c3Cl)CC2)C1)c1ncco1` [crystal form A of hydrochloride, N-(trans-3-(2-(4-(2,3-dichlorophenyl)piperazin-1-yl)ethyl)cyclobutyl)oxazole-2-carboxamide], the “Maximum single impurity increase %” value [1, 9] was 0.06%, the “Total impurity increase %” value [1, 9] was 0.06% and the “Maximum single impurity increase %” value ([1]; High humidity, 10 Days) was less than 0.02%. For the same compound, the “Total impurity increase %” value ([1]; High humidity, 10 Days) was less than 0.02%, the “Maximum single impurity increase %” value [1, 10] was less than 0.02% and the “Total impurity increase %” value [1, 10] was less than 0.02%. For the same compound, the “Maximum single impurity increase %” value [1, 11] was less than 0.02%, the “Total impurity increase %” value [1, 11] was less than 0.02% and the “Maximum single impurity increase %” value ([1]; High temperature, 5 Days) was less than 0.02%. For the same compound, the “Total impurity increase %” value ([1]; High temperature, 5 Days) was less than 0.02%, the “Maximum single impurity increase %” value ([1]; High temperature, 10 Days) was less than 0.02% and the “Total impurity increase %” value ([1]; High temperature, 10 Days, listed as Crystal form A of hydrochloride) was 0.03%. For the same compound, the “Maximum single impurity increase %” value [1, 12] was less than 0.02%, the “Total impurity increase %” value [1, 12] was less than 0.02% and the “Maximum single impurity increase %” value [1, 13] was less than 0.02%. The “Total impurity increase %” value [1, 13] was less than 0.02%, the crystal form stability [1, 14] was “stable under all conditions” and the impurities [1, 14] was “not significantly increased”. The “crystal transformation (PXRD)” value [2] was “didn't undergo crystal transformation”, the “crystal transformation (PXRD)” value [3] was “didn't undergo crystal transformation” and the “stability in humid environments” value [4] was “stable in humid environments”. For the same compound, the “thermodynamic stability of crystal form” value [5] was “thermodynamically stable crystal form”, the “Results (crystal form after pulping, XRPD)” value (“Results” for short) ([5]; 1,4-Dioxane) was “Crystal form A” and the “crystal form after being pulped by different solvents” value ([5]; 1 week, room temperature and 50° C.) was “does not change”. For the same compound, the “Results” value ([5]; 2-Butanone) was “Crystal form A”, the “Results” value ([5]; 2-Methyl-tetrahydrofuran) was “Crystal form A” and the “Results” value ([5]; Acetone) was “Crystal form A”. The “Results” value ([5]; Acetonitrile) was “Crystal form A”, the “Results” value ([5]; Dichloromethane) was “Crystal form A” and the “Results” value ([5]; Ethanol) was “Crystal form A”. The “Results” value ([5]; Ethyl acetate) was “Crystal form A”, the “Results” value ([5]; Ethyl formate) was “Crystal form A” and the “Results” value ([5]; Isopropanol) was “Crystal form A”. The “Results” value ([5]; Methanol) was “Crystal form A”, the “Results” value ([5]; Methyl tert-butyl ether) was “Crystal form A” and the “Results” value ([5]; Tetrahydrofuran) was “Crystal form A”. For the same compound, the “Results” value ([5]; Toluene) was “Crystal form A”, the “Results” value ([5]; n-Heptane) was “Crystal form A” and the “Determination of Cl-percentage content in hydrochloride” value ([6]; Batch 1) was 7.82%. The “Determination of Cl-percentage content in hydrochloride” value ([6]; Batch 2) was 7.90%, the exposure versus dose ([7]; dose of 100 mg/kg and 30 mg/kg) was “dose-related” and the “in vivo exposure compared with crystal form B of free base” value ([7]; gavage) was “increased”. For the same compound, the stability [8] was “good stability”, the “crystal form change (PXRD)” value [8, 15] was “does not undergo crystal form change” and the “impurities (HPLC)” value [8, 15] was “do not increase significantly”.
